The text below walks through data of US20260022142A1, “MACROCYCLIC IMMUNOMODULATORS” (Bristol-Myers Squibb Company, priority 2022, published 2026).

Broadly, the IC50 is the concentration needed to halve the response being measured.

Bridge positions count the residues as written; N and C are the ends. Square brackets hold non-standard residues; d marks the D form. Peptide text beside a SMILES is read from it. * marks the point of attachment. Phe(4-CONH2) = NC(=O)c1ccc(C[C@H](N)C(=O)O)cc1; Phe(4-COOH) = N[C@@H](Cc1ccc(C(=O)O)cc1)C(=O)O; Phe(4-CH2NH2) = NCc1ccc(C[C@H](N)C(=O)O)cc1; Bip = N[C@@H](Cc1ccc(-c2ccccc2)cc1)C(=O)O; Phe(3-Me) = Cc1cccc(C[C@H](N)C(=O)O)c1; Phe(4-F) = N[C@@H](Cc1ccc(F)cc1)C(=O)O; Phe(2-Me) = Cc1ccccc1C[C@H](N)C(=O)O; Cha = N[C@@H](CC1CCCCC1)C(=O)O; Carboxymethyl = O=C(O)C*; Orn = NCCC[C@H](N)C(=O)O; Aun = NCCCCCCCCCCC(=O)O; Dab = NCC[C@H](N)C(=O)O; Dap = NC[C@H](N)C(=O)O; AEEA = NCCOCCOCC(=O)O

In this experiment the target is T1, PD-1/PD-L1 interaction (PE-labeled human PD-L1-Ig binding to Jurkat cell line over-expressing human PD-1) (Homo sapiens, UniProt Q15116).
T1 construct: expressed in transfected cells; host or cells: Jurkat
T1 sequence (Q15116 25-288): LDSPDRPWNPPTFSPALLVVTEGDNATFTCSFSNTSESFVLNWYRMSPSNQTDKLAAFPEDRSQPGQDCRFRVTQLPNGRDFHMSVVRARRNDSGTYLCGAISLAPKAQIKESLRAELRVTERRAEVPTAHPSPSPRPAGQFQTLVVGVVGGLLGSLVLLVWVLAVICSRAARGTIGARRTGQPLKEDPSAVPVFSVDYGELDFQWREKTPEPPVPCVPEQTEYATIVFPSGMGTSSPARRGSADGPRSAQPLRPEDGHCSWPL
Briefly: Jurkat-PD-1 Cell Binding High-Content Screening Assay (CBA). Particulars: Jurkat cell line over-expressing human PD-1; PE-labeled PD-L1-Ig 20 nM final; read-out: Jurkat hPD1-PDL1 IC50. The experiment is classed as cell-based. The method, boiled down: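 Human PD-L1-Ig carrying a covalent PE label on its Ig tag serves as the probe, applied at 20 nM final to compound-treated (2 h, 37° C) Jurkat-hPD-1 cells in medium with 10% fetal calf serum. After one hour, fixation and nuclear staining precede high-content image analysis.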
Turning to `Cc1cccc(C[C@@H]2NC(=O)[C@H](CC(=O)O)NC(=O)[C@H](Cc3ccc(OCC(=O)O)cc3)NC(=O)[C@H](CN)NC(=O)CSC[C@@H](C(=O)N[C@@H](CCN)C(=O)NCCOCCOCC(=O)NCCCCCCCCCCC(=O)O)NC(=O)[C@H](CCCN)NC(=O)[C@H](C(C)C)NC(=O)[C@H](CC3CCCCC3)NC(=O)[C@H](CCN)NC(=O)[C@@H](CC(C)C)NC(=O)[C@H](CCCN)NC(=O)[C@H](Cc3ccc(C(=O)O)cc3)NC(=O)[C@H](Cc3ccc(-c4ccccc4)cc3)NC(=O)[C@H](Cc3ccc(O)cc3)NC2=O)c1` [Compound 2042] ({CH2CO}-[Dap]Y(Carboxymethyl)D[Phe(3-Me)]Y[Bip][Phe(4-COOH)][Orn][dL][Dab][Cha]V[Orn]C[Dab][AEEA][Aun]-OH; thioether N-14), the half-maximal inhibitory concentration (IC50) was found to be 5 nM.

In the case of `Cc1cccc(C[C@@H]2NC(=O)[C@H](CC(=O)O)NC(=O)[C@H](Cc3ccc(OCC(=O)O)cc3)NC(=O)[C@H](CN)NC(=O)CSC[C@@H](C(=O)N[C@@H](CCN)C(=O)NCCOCCOCC(=O)NCCCCCCCCCCC(=O)O)NC(=O)[C@H](CCCN)NC(=O)[C@H](C(C)C)NC(=O)[C@H](CC3CCCCC3)NC(=O)[C@H](CCN)NC(=O)[C@@H](CC(C)C)NC(=O)[C@H](CCCN)NC(=O)[C@H](Cc3ccc(C(N)=O)cc3)NC(=O)[C@H](Cc3ccc(-c4ccccc4)cc3)NC(=O)[C@H](Cc3ccc(O)cc3)NC2=O)c1` [Compound 2045] ({CH2CO}-[Dap]Y(Carboxymethyl)D[Phe(3-Me)]Y[Bip][Phe(4-CONH2)][Orn][dL][Dab][Cha]V[Orn]C[Dab][AEEA][Aun]-OH; thioether N-14), the IC50 turned out to be 7.2 nM.

As to `Cc1cccc(C[C@@H]2NC(=O)[C@H](CC(=O)O)NC(=O)[C@H](Cc3ccc(OCC(=O)O)cc3)NC(=O)[C@H](CN)NC(=O)CSC[C@@H](C(=O)N[C@@H](CCN)C(=O)NCCOCCOCC(=O)NCCCCCCCCCCC(=O)O)NC(=O)[C@H](CCCN)NC(=O)[C@H](C(C)C)NC(=O)[C@H](CC3CCCCC3)NC(=O)[C@H](CCN)NC(=O)[C@@H](CC(C)C)NC(=O)[C@H](CCCN)NC(=O)[C@H](Cc3ccc(CN)cc3)NC(=O)[C@H](Cc3ccc(-c4ccccc4)cc3)NC(=O)[C@H](Cc3ccc(O)cc3)NC2=O)c1` [Compound 2046] ({CH2CO}-[Dap]Y(Carboxymethyl)D[Phe(3-Me)]Y[Bip][Phe(4-CH2NH2)][Orn][dL][Dab][Cha]V[Orn]C[Dab][AEEA][Aun]-OH; thioether N-14), the concentration for half-maximal inhibition (IC50) was determined as 9.7 nM.

In the case of `Cc1cccc(C[C@@H]2NC(=O)[C@H](CC(=O)O)NC(=O)[C@H](Cc3ccc(OCC(=O)O)cc3)NC(=O)[C@H](CN)NC(=O)CSC[C@@H](C(=O)N[C@@H](CCN)C(=O)NCCOCCOCC(=O)NCCCCCCCCCCC(=O)O)NC(=O)[C@H](CCCN)NC(=O)[C@H](C(C)C)NC(=O)[C@H](CC3CCCCC3)NC(=O)[C@H](CCN)NC(=O)[C@@H](CC(C)C)NC(=O)[C@H](CCCN)NC(=O)[C@H](Cc3ccccc3C)NC(=O)[C@H](Cc3ccc(-c4ccccc4)cc3)NC(=O)[C@H](Cc3ccc(O)cc3)NC2=O)c1` [Compound 2048] ({CH2CO}-[Dap]Y(Carboxymethyl)D[Phe(3-Me)]Y[Bip][Phe(2-Me)][Orn][dL][Dab][Cha]V[Orn]C[Dab][AEEA][Aun]-OH; thioether N-14), the IC50 turned out to be 12.4 nM.

As to `Cc1cccc(C[C@@H]2NC(=O)[C@H](CC(=O)O)NC(=O)[C@H](Cc3ccc(OCC(=O)O)cc3)NC(=O)[C@H](CN)NC(=O)CSC[C@@H](C(=O)N[C@@H](CCN)C(=O)NCCOCCOCC(=O)NCCCCCCCCCCC(=O)O)NC(=O)[C@H](CCCN)NC(=O)[C@H](C(C)C)NC(=O)[C@H](CC3CCCCC3)NC(=O)[C@H](CCN)NC(=O)[C@@H](CC(C)C)NC(=O)[C@H](CCCN)NC(=O)[C@H](Cc3ccc(F)cc3)NC(=O)[C@H](Cc3ccc(-c4ccccc4)cc3)NC(=O)[C@H](Cc3ccc(O)cc3)NC2=O)c1` [Compound 2049] ({CH2CO}-[Dap]Y(Carboxymethyl)D[Phe(3-Me)]Y[Bip][Phe(4-F)][Orn][dL][Dab][Cha]V[Orn]C[Dab][AEEA][Aun]-OH; thioether N-14), the IC50 is 16.9 nM.
